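Where inhibition never reached the appropriate level, the endpoint shown equals the highest concentration tested. Otherwise, values were interpolated linearly from a five-concentration, 48-hour dose response in 96-well plates. The concentration for 50% growth inhibition is given as GI50.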 The source made the active and inactive calls. Rule as the data show it: active = GI50 up to about 1.1 µM and inactive = higher.
Columns and labels:
Assay in all cases: growth of human tumour cells (NCI), 48 h
[1] = test system: Malme-3M
[2] = test system: NCI-H226
[3] = test system: PC-3
[4] = test system: K562
[5] = test system: SNB-19
[6] = test system: MOLT-4
[7] = test system: UACC-257
[8] = test system: SK-MEL-2
[9] = test system: MDA-N
[10] = test system: KM12
[11] = test system: OVCAR-8
[12] = test system: SW-620
[13] = test system: SK-MEL-28
[14] = test system: IGROV-1
[15] = test system: RPMI-8226
[16] = test system: LOX IMVI
[17] = test system: SR
[18] = test system: Hs-578T
[19] = test system: SF-539
[20] = test system: NCI-H460

| SMILES | GI50 [1] | GI50 [2] | GI50 [3] | GI50 [4] | GI50 [5] | GI50 [6] | GI50 [7] | GI50 [8] | GI50 [9] | GI50 [10] | GI50 [11] | GI50 [12] | GI50 [13] | GI50 [14] | GI50 [15] | GI50 [16] | GI50 [17] | GI50 [18] | GI50 [19] | GI50 [20] |
| --- | --- | --- | --- | --- | --- | --- | --- | --- | --- | --- | --- | --- | --- | --- | --- | --- | --- | --- | --- | --- |
| C[C@]12CC[C@H]3[C@@H](CCC4=C/C(=N/OCCN5CCCCC5)CC[C@@]43C)[C@@H]1CC[C@@H]2O | 15 µM (inactive) | 4.29 µM (inactive) | 16.2 µM (inactive) | 2.75 µM (inactive) | 5.68 µM (inactive) | 5.81 µM (inactive) | 17.2 µM (inactive) | 14.6 µM (inactive) | 15 µM (inactive) | 10.2 µM (inactive) | 24.1 µM (inactive) | 13.9 µM (inactive) | 13.6 µM (inactive) | 27.4 µM (inactive) | 10.7 µM (inactive) | 11 µM (inactive) |  |  |  |  |
| COc1ccc2c(=O)c(-c3cc4c(cc3OC)OCO4)coc2c1 |  | > 100 µM (inactive) | > 100 µM (inactive) |  | 52 µM (inactive) | > 100 µM (inactive) | > 100 µM (inactive) | > 100 µM (inactive) |  | > 100 µM (inactive) | 55.2 µM (inactive) | > 100 µM (inactive) | > 100 µM (inactive) | 58.9 µM (inactive) | > 100 µM (inactive) | > 100 µM (inactive) | > 100 µM (inactive) | > 100 µM (inactive) | > 100 µM (inactive) | > 100 µM (inactive) |
| COc1ccc2[nH]c3c([N+](=O)[O-])ccc(NCCN(C)C)c3/c(=N/CCN(C)C)c2c1 | 2.58 µM (inactive) |  | 0.676 µM (active) | 1.22 µM (inactive) |  | 0.172 µM (active) | > 10 µM (inactive) |  | 1.75 µM (inactive) | 1.26 µM (inactive) | 0.634 µM (active) | 1.04 µM (active) | 2.26 µM (inactive) | 1.91 µM (inactive) | 0.421 µM (active) | 1.62 µM (inactive) | 0.117 µM (active) |  |  |  |
| CN(C)c1ccc(C(=C(c2ccc(N(C)C)cc2)c2ccc(N(C)C)cc2)c2ccc(N(C)C)cc2)cc1 | 15 µM (inactive) | 19.8 µM (inactive) |  | 8.09 µM (inactive) | 13.8 µM (inactive) | 14.6 µM (inactive) | 17.3 µM (inactive) | 12.1 µM (inactive) |  | 18.5 µM (inactive) | 19.6 µM (inactive) | 1.87 µM (inactive) | 14.3 µM (inactive) | 17.3 µM (inactive) | 7 µM (inactive) | 13.5 µM (inactive) | 9.04 µM (inactive) |  | 13.8 µM (inactive) | 15.8 µM (inactive) |
| O=c1c2ncn(C3CCCO3)c2n(-c2ccccc2)c(=S)n1-c1ccccc1 (stereo unspecified) |  | > 100 µM (inactive) | > 100 µM (inactive) | > 100 µM (inactive) |  | > 100 µM (inactive) | > 100 µM (inactive) | > 100 µM (inactive) |  | > 100 µM (inactive) | > 100 µM (inactive) | > 100 µM (inactive) | > 100 µM (inactive) | > 100 µM (inactive) | > 100 µM (inactive) | > 100 µM (inactive) | > 100 µM (inactive) |  | > 100 µM (inactive) | > 100 µM (inactive) |
| Oc1ccc2c(O)cc(-c3ccccc3)nc2c1 | 34.4 µM (inactive) | 65.3 µM (inactive) |  | 19.2 µM (inactive) | 32.4 µM (inactive) | 21.1 µM (inactive) | 21.7 µM (inactive) | 31.7 µM (inactive) |  | 22.2 µM (inactive) | 32.7 µM (inactive) | 16.4 µM (inactive) | 38.3 µM (inactive) | 29 µM (inactive) | 17.5 µM (inactive) | 17.5 µM (inactive) | 38.1 µM (inactive) |  | 37.2 µM (inactive) | 17.8 µM (inactive) |
| C[C@@]12C(=O)OC(=O)[C@]1(C)[C@H]1CC[C@@H]2O1 [CANTHARIDIN] | 1.34 µM (inactive) | 1.06 µM (active) | 0.279 µM (active) | 2.3 µM (inactive) | 1.1 µM (active) | 9.79 µM (inactive) | 2.65 µM (inactive) | 1.45 µM (inactive) | 2.91 µM (inactive) | 5.42 µM (inactive) | 5.98 µM (inactive) | 3.84 µM (inactive) | 3.48 µM (inactive) | 2.16 µM (inactive) | 2.08 µM (inactive) | 2.23 µM (inactive) | 2.61 µM (inactive) |  | 2.04 µM (inactive) | 2.72 µM (inactive) |
| COc1cc2c(cc1OCCCCOc1cc(-c3ccc(F)cc3)nc(C)n1)N=C[C@@H]1CCCN1C2=O | 0.82 µM (active) | 1.05 µM (active) | 0.759 µM (active) | 0.267 µM (active) | 0.689 µM (active) | 0.108 µM (active) | 0.692 µM (active) | 0.853 µM (active) |  | 0.728 µM (active) | 0.989 µM (active) | 0.855 µM (active) | 0.982 µM (active) | 0.731 µM (active) | 0.0519 µM (active) | 0.166 µM (active) | 0.16 µM (active) | 1.05 µM (active) | 0.927 µM (active) | 0.413 µM (active) |
| [N-]=[N+]=Nc1ccc2c(c1)Sc1ccccc1N2CCCCN1CCN(Cc2ccc(C(=O)c3ccc(CSCC(N)C(=O)O)cc3)cc2)CC1 (stereo unspecified) | > 10 µM (inactive) | 13.2 µM (inactive) | 43.5 µM (inactive) | 12.5 µM (inactive) |  | 15.3 µM (inactive) | 22.8 µM (inactive) | 19.3 µM (inactive) | 12.8 µM (inactive) | 1.57 µM (inactive) |  | 1.87 µM (inactive) | 2.01 µM (inactive) | 13.5 µM (inactive) | 13.2 µM (inactive) | 10.6 µM (inactive) |  |  |  | 34.8 µM (inactive) |
| CN(C(=O)c1ccc(Cl)cc1)C(=S)N1CCN(c2ccccn2)CC1 | > 100 µM (inactive) | 37.2 µM (inactive) |  | > 100 µM (inactive) | > 100 µM (inactive) | > 100 µM (inactive) | > 100 µM (inactive) | > 100 µM (inactive) |  | > 100 µM (inactive) | > 100 µM (inactive) | > 100 µM (inactive) | > 100 µM (inactive) | > 100 µM (inactive) | > 100 µM (inactive) | > 100 µM (inactive) | > 100 µM (inactive) |  | > 100 µM (inactive) | > 100 µM (inactive) |
| Cc1nn(C(=O)Cc2ccccc2)c2c1C(c1ccccc1O)SC(=N)N2 (stereo unspecified) | > 100 µM (inactive) | > 100 µM (inactive) | > 100 µM (inactive) | > 100 µM (inactive) | > 100 µM (inactive) | > 100 µM (inactive) | > 100 µM (inactive) |  |  | > 100 µM (inactive) | > 100 µM (inactive) | > 100 µM (inactive) | > 100 µM (inactive) | > 100 µM (inactive) | > 100 µM (inactive) | > 100 µM (inactive) | > 100 µM (inactive) | > 100 µM (inactive) | > 100 µM (inactive) | > 100 µM (inactive) |
| C=C1C(=O)OC2CC3(C)C=CC(=O)C(=C)C3CC12 (stereo unspecified) | 1.99 µM (inactive) | 12.1 µM (inactive) |  | 1.71 µM (inactive) | 8.55 µM (inactive) | 1.03 µM (active) | 1.64 µM (inactive) | 1.67 µM (inactive) |  | 2.08 µM (inactive) | 1.55 µM (inactive) | 1.04 µM (active) | 1.77 µM (inactive) | 2.28 µM (inactive) | 0.589 µM (active) | 0.516 µM (active) | 0.938 µM (active) |  | 1.53 µM (inactive) | 2.59 µM (inactive) |
| CC1(C)OCN(c2ccc(S(N)(=O)=O)cc2)Cn2c1nc1ccccc12 | > 100 µM (inactive) | > 100 µM (inactive) |  | > 100 µM (inactive) | > 100 µM (inactive) | > 100 µM (inactive) | > 100 µM (inactive) | > 100 µM (inactive) |  | > 100 µM (inactive) | > 100 µM (inactive) | > 100 µM (inactive) | > 100 µM (inactive) | > 100 µM (inactive) | > 100 µM (inactive) | > 100 µM (inactive) | > 100 µM (inactive) |  | > 100 µM (inactive) | > 100 µM (inactive) |
| O=C(O)C1SCCS1 | > 100 µM (inactive) | > 100 µM (inactive) | > 100 µM (inactive) | > 100 µM (inactive) | > 100 µM (inactive) | > 100 µM (inactive) | > 100 µM (inactive) |  | > 100 µM (inactive) |  | > 100 µM (inactive) | > 100 µM (inactive) | > 100 µM (inactive) | > 100 µM (inactive) | > 100 µM (inactive) | > 100 µM (inactive) | > 100 µM (inactive) |  |  | > 100 µM (inactive) |
| Cc1cc2c(c3oc(C4(C)OC4C4OC4C)cc(=O)c13)C(=O)c1c(O)c(C3CC(C)(N(C)C)C(O)C(C)O3)cc(C3CC(N(C)C)C(O)C(C)O3)c1C2=O (stereo unspecified) |  |  | 6.52e-05 µM (active) | 0.0025 µM (active) | 0.0025 µM (active) | 0.0025 µM (active) | 0.000116 µM (active) |  |  |  | 0.0025 µM (active) | 0.0025 µM (active) |  | 0.000951 µM (active) | 0.000271 µM (active) |  | 6.17e-05 µM (active) | 0.000349 µM (active) | 0.000531 µM (active) | 0.0025 µM (active) |
| COc1cc2cnc(-c3ccccc3)cc2cc1OC | 27.9 µM (inactive) | 17.7 µM (inactive) | 23 µM (inactive) | 30.1 µM (inactive) | 24.9 µM (inactive) | 20 µM (inactive) | 22.8 µM (inactive) | 23 µM (inactive) |  | 26.9 µM (inactive) | 26.5 µM (inactive) | 32.4 µM (inactive) | 33.5 µM (inactive) | 19.1 µM (inactive) | 15.9 µM (inactive) |  | 16.8 µM (inactive) | 12.8 µM (inactive) | 31.1 µM (inactive) | 32.2 µM (inactive) |
